Source: patent US6492365B1, “Microsomal triglyceride transfer protein” (Bristol-Myers Squibb Company, priority 1992, dated 2002)
Counter-ions that a name gives are not always drawn.

Test system: HSA secretion from HepG2 cells
Assay: HSA secretion from HepG2 cells (ELISA of culture media)
Type: cell-based, human
Conditions: 16-hour incubation, up to the maximum dose of 20 μM
Experimental: HepG2 cells were treated with compound A at the indicated doses for 16 hours. The concentration in the cell culture media of apoB, apoAI and HSA after the incubation period was measured with the appropriate ELISA assay and normalized to total cell protein. The data shown are expressed as a percentage of the control (DMSO only).
The human hepatoblastoma cell line, HepG2, was obtained from the American Type Culture Collection (Rockville, Md.; ATCC accession no. 8065). Cultures were maintained at 37° C. in a 5% carbon dioxide atmosphere in T-75 culture flasks with 12 mL of RPMI 1640 medium containing 10% fetal bovine serum (all cell culture media and buffers were obtained from GIBCO Life Technologies, Gaithersburg, Md.). Cells were subcultured 1:4 once a week and fed fresh medium 3 times a week.
Experiments to measure the effects of compounds A and B on protein secretion were carried out in 48-well plates. HepG2 cells were subcultured 1:2 and allowed to come to confluency at least 24 hours before drug treatment. Before commencement of drug treatment, culture medium was removed, the cells washed once with PBS and 1 mL of fresh medium was added quantitatively. […] The cells were homogenized by trituration with a 1 mL micropipettor, and protein was measured using the Coomassie reagent (Pierce Chemical Co, Rockford, Ill.) as described by the manufacturer. […]

Compound: O=C1c2ccccc2CN1C1CCN(CCC(c2ccccc2)c2ccccc2)CC1 [compound A, 2-[1-(3,3-diphenylpropyl)-4-piperdinyl]-2,3-dihydro-3-oxo-1H-isoindole hydrochloride]
- secretion of HSA: unaffected
